Experimental data taken from patent US5874464A, “Conformationally constrained diacylglycerol analogues” (The United States of America as represented by the …, priority 1995, dated 1999).
Read-outs that look alike come from different tables or passages of the source. Blank lines part the entries; values can stand above or below the compound they belong to.

What was measured:
[1] = test system: PK-C.eta.; assay: down-regulation of PK-C.eta. in primary mouse keratinocytes; type: cell-based; conditions: after 24 hours
[2] = test system: binding of epidermal growth factor; assay: inhibition of binding of epidermal growth factor in intact cells; type: cell-based; conditions: read-out: ED50, inhibition of binding of epidermal growth factor
Experimental: (§1) The biological activity of compound 3.8 was evaluated further. […] Finally, the ability of compound 3.8 to down-regulate PK-C α and PK-C δ in primary mouse keratinocytes after 24 hours was examined.

[3] = target: T1, PK-C α (Homo sapiens, UniProt P17252); assay: displacement of bound [3H-20]-phorbol-12,13-dibutyrate (PDBU) from single recombinant isozyme PK-C α; type: binding; conditions: for Ki: PK-C α
T1 construct: made in house
Experimental: This recombinant PK-C α was expressed in baculovirus and isolated as described by Kazanietz et al. (Mol. Pharmacol. 44: 298-307 (1993)).
The affinity of these ligands for PK-C was assessed in terms of their ability to displace bound [^3 H-20]-phorbol-12,13-dibutyrate (PDBU) from a purified product containing the single isozyme PK-C α.

[4] = test system: PK-Cε; assay: down-regulation of PK-Cε in primary mouse keratinocytes; type: cell-based; conditions: after 24 hours
[5] = target: T1, PK-C α; assay: stimulation of phosphorylation of the α-pseudosubstrate peptide (activation of PK-C α); type: biochemical; conditions: read-out: ED50, stimulation of phosphorylation of the α-pseudosubstrate peptide
[6] = target: T2, PK-C α (Mus musculus, UniProt P20444); assay: down-regulation of PK-C α in primary mouse keratinocytes; type: cell-based; conditions: even after 24 h
T2 construct: in primary mouse keratinocytes; endogenous in cells; host or cells: primary mouse keratinocytes
Experimental: as §1

[7] = test system: CD-1 mouse skin; assay: induction of acute edema or hyperplasia in CD-1 mouse skin; type: in vivo; conditions: 10-100 μg
[8] = test system: mouse skin tumor promotion; conditions: in vivo; cited from earlier work
[9] = test system: melanoma; conditions: in vivo; cited from earlier work
[10] = stability to racemization / acyl migration; type: physicochemical; conditions: silica or neutral alumina
[11] = Table I, read-out: Apparent Ki for ligands as inhibitors of PDBU binding to PK-C
[12] = Table IV, read-out: Apparent Ki for chiral ligands having an α-alkylidene chain as inhibitors of PDBU binding to PK-C
[13] = Table II, racemic and chiral compounds, read-out: Apparent Ki for ligands as inhibitors of PDBU binding to PK-C
[14] = read-out: Ki, displacement of bound PDBU

Structure (SMILES): CC(=O)OC12CC(C)C3(O)C(C=C(CO)CC4(O)C(=O)C(C)=CC43)C1C2(C)C (stereo not shown) [12-deoxyphorbol-13-acetate]
inhibition of mouse skin tumor promotion [8]: 97%

Structure (SMILES): CCCCCCCCCCCCCCC1CC(CO)(COC(C)=O)OC1=O (stereo not shown) [Compound 12, 5-(acetyloxymethyl)-5-(hydroxymethyl)-3-(tetradecanyl)-tetrahydro-2-furanone]
Ki [3, 11]: 75 ± 2.54 nM

Structure (SMILES): CCCCCCCCCCCCCC(=O)OCC1(CO)COC(=O)C1 (stereo not shown) [Compound 9c, 4-Hydroxymethyl-4-(tetradecanoyloxy)methyl-4-vinyltetrahydro-2-furanone]
Ki [3, 11]: 9810 nM

Structure (SMILES): CCCC=CC=CC(=O)OC1C(=CC(=O)OC)CC2CC(C(C)O)OC(=O)CC(O)CC3CC(OC(C)=O)C(C)(C)C(O)(CC4CC(=CC(=O)OC)CC(C=CC(C)(C)C1(O)O2)O4)O3 (stereo not shown) [bryostatin-1]
results in clinical trials for treatment of melanoma [9]: promising results

Structure (SMILES): CCCCCCCCCCCCCC(=O)OCC1(CO)CCC(=O)O1 (stereo not shown)
Ki [3, 13]: 138 ± 24 nM

Structure (SMILES): CCCCCCCCCCCCC/C=C1\C(=O)OCC1(CO)COC(C)=O (stereo not shown) [Compound 14c, (Z)-4-[(acetoxy)methyl]-4-hydroxymethyl-3-(tetradecanylidene)-tetrahydro-2-furanone]
Ki [3, 11]: 6510 nM

Structure (SMILES): CCCCCCCCCCCCCC(=O)OC[C@]1(CO)CCC(=O)O1 [Compound 2.2, (R)-5-[(tetradecanoyloxy)methyl]-5-(hydroxymethyl)-tetrahydro-2-furanone]
racemization on exposure to chromatographic conditions [10]: rapid racemization
Ki [3, 14]: 96 nM

Structure (SMILES): CCCCCCCCCCCCCC(=O)OC[C@]1(CO)CCC(=O)O1 [drawing 16]
Ki [3, 13]: 96 ± 2.17 nM

Structure (SMILES): CCCCCCCCCCCCCC(=O)OCC1(CO)CCC(=O)O1 (racemic) [Compound 3e, 5-[(tetradecanoyloxy)methyl]-5-hydroxymethyl-tetrahydro-2-furanone]
Ki [3, 14]: 138 nM

Continued, in another order:

binding affinity compared with the corresponding α-alkylidenes 3.9 and 3.10 ([3]; Table IV): equivalent
EC50 [5]: 163 ± 16.7 nM
loss in activity [6]: No loss in activity was observed
induction of acute edema ([7]; 6 h): did not induce acute edema
Structure (SMILES): CCCCCCCC/C=C\CCCCCCC/C=C1/C[C@](/C=C/C(=O)OC)(CO)OC1=O [Compound 3.8, (S)-5-Hydroxymethyl-5-[2-(methoxycarbonyl)ethenyl]-3-{(Z)-[(Z)-9-octadecenoylidene]}tetrahydro-2-furanone]
down-regulation of PK-C.eta. [1]: did not down-regulate
IC50 [2]: 1000 nM
down-regulation of PK-Cε [4]: did not down-regulate
induction of hyperplasia ([7]; 72 h): did not induce acute edema (10-100 μg, 6 h) or hyperplasia

Ki [3, 11]: 96 ± 7.45 nM
Structure (SMILES): CCCCCCCC/C=C\CCCCCCCC(=O)OCC1(CO)CCC(=O)O1 (stereo not shown) [Compound 3f, 5-{[(Z)-9-octadecenoyloxy]methyl}-5-hydroxymethyl-tetrahydro-2-furanone]

Ki [3, 12]: 11.3 ± 0.72 nM
Structure (SMILES): CCCCCCCC/C=C\CCCCCCC/C=C1/C[C@](/C=C/C(=O)OC)(CO)OC1=O [drawing 36]

binding affinity compared with the corresponding α-alkylidenes 3.9 and 3.10 ([3]; Table IV): equivalent
Structure (SMILES): CCCCCCCC/C=C\CCCCCCC/C=C1\C[C@](/C=C/C(=O)OC)(CO)OC1=O [Compound 3.7, (S)-5-Hydroxymethyl-5-[2-(methoxycarbonyl)ethenyl]-3-{(E)-[(Z)-9-octadecenoylidene]}tetrahydro-2-furanone]

Ki [3, 12]: 20.1 ± 2.9 nM
Structure (SMILES): CCCCCCCC/C=C\CCCCCCC/C=C1\C[C@](/C=C/C(=O)OC)(CO)OC1=O [drawing 35]
